The record followed here is US20210041447A1, “AZACARBOLINE COMPOUNDS FOR THE DETECTION OF TAU AGGREGATES” (AC IMMUNE SA, priority 2018, published 2021).

The target of test [1] is Tau (Homo sapiens, UniProt P10636). The test can be described thus: Tau binding in AD brain homogenate, competition with 18F-labeled Tau binder. More on the design: High affinity to Tau: key: −: poor; ∘: moderate; +: good; ++: very good; +++: excellent. The note with it: for High affinity to Tau: AD brain homogenate, non-radioactive fluorine-19 derivatives; for IC50: human AD brain homogenate, fluorine-19 derivatives. As for the experimental part:
(§1) 20 μg of human Alzheimer disease brain homogenate was incubated with a dilution series of each test compound (1000 to 0.06 nM) in the presence of 800 Bq of ^18F-labeled Tau binder. The samples were shaken at 110 rpm for 45 min at 37° C. Samples were then filtered through GF/B 96 well filter plates and washed twice with 300 μL assay buffer (PBS containing 0.1% BSA and 2% DMSO). Thereafter, filter plates were sealed and a Fuji Film Imaging Plate (BAS-SR2025) was placed on top. The imaging plate was analyzed after overnight exposition using a Fuji Film BAS-5000. Non-specific signal was determined with samples containing ^18F-labeled Tau-reference binder in the presence of assay buffer without brain substrate and competitor. Specific binding was calculated by subtracting the non-specific signal from the measured samples signal. The unblocked ^18F-labeled Tau-binder signal was defined as total binding. IC50 values were calculated by Prism V6 (GraphPad) setting total binding to 100%.

For test [2], the target named is amyloid-beta (Homo sapiens, UniProt P05067). As to the kind of experiment: Binding affinity to amyloid-beta in AD brain homogenate, competition with 18F-labeled beta-amyloid binder. More on the design: Low affinity to amyloid-beta: key: −: poor; ∘: moderate; +: good; ++: very good; +++: excellent. On the procedure:
as §1, with “beta-amyloid” for “Tau”, “96-well” for “96 well”, “beta-amyloid” for “Tau-reference”, “beta-amyloid binder” for “Tau-binder”

Test [3] has as its target T1, MAO A (Homo sapiens, UniProt P21397).
T1 construct: from tissue; host or cells: human healthy control brain homogenate
T1 sequence (P21397 1-527): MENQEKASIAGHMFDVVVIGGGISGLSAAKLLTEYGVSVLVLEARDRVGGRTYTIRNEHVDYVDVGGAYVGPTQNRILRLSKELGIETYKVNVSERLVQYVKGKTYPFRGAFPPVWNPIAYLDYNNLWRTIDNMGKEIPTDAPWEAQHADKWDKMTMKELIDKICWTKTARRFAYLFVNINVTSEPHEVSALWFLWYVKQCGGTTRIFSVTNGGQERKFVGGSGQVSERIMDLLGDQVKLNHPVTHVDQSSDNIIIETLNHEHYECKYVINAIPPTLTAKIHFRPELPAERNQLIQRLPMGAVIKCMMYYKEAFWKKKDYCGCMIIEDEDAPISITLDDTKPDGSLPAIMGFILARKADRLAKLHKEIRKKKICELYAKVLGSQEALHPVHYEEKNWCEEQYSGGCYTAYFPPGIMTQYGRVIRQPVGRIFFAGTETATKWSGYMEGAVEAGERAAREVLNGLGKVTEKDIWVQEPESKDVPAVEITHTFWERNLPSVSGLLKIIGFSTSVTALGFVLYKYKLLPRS
The test can be described thus: Binding affinity to MAO A in human HC brain homogenate, [18F]fluoroethyl harmine competition. For Low affinity to MAO A (HC homogenate): key: −: poor; ∘: moderate; +: good; ++: very good; +++: excellent. The settings on record: human healthy control brain homogenate; for IC50: 18F-FEH competition. As for the experimental part: as §1, with “of” for “of human Alzheimer disease”, “homogenate (without AD pathology)” for “homogenate”, “18F-labeled MAO-A binder ([^18F]fluoroethyl harmine, FEH).” for “^18F-labeled Tau binder.”, “96-well” for “96 well”, “FEH” for “Tau-reference binder”, “FEH” for “Tau-binder”

Test [4] has as its target T2, MAO A (Mus musculus, UniProt Q64133).
T2 construct: from tissue; host or cells: mouse brain homogenate
T2 sequence (Q64133 1-526): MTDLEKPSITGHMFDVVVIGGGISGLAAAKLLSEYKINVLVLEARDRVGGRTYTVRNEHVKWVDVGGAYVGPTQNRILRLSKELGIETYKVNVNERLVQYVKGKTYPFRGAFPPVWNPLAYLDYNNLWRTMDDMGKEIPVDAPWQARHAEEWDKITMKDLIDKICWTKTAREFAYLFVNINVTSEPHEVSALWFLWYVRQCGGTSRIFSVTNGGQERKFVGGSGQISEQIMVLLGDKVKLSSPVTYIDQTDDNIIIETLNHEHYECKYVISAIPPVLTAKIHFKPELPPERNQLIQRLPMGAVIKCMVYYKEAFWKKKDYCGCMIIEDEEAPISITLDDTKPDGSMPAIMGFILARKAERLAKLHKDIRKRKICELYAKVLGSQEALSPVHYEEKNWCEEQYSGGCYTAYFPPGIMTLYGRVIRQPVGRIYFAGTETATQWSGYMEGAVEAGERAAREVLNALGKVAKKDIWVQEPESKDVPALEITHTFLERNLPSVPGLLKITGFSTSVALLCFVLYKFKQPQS
The test can be described thus: Binding affinity to MAO A in mouse brain homogenate, [18F]fluoroethyl harmine competition. For Low affinity to MAO A (mouse homogenate): key: −: poor; ∘: moderate; +: good; ++: very good; +++: excellent. The note with it: for IC50: 18F-FEH competition. As for the experimental part: as §1, with “of” for “of human Alzheimer disease”, “homogenate (without AD pathology)” for “homogenate”, “18F-labeled MAO-A binder ([^18F]fluoroethyl harmine, FEH).” for “^18F-labeled Tau binder.”, “96-well” for “96 well”, “FEH” for “Tau-reference binder”, “FEH” for “Tau-binder”

Test [5] has as its target T3, MAO B (Homo sapiens, UniProt P27338).
T3 construct: from tissue; host or cells: human brain homogenate without AD pathology
T3 sequence (P27338 1-520): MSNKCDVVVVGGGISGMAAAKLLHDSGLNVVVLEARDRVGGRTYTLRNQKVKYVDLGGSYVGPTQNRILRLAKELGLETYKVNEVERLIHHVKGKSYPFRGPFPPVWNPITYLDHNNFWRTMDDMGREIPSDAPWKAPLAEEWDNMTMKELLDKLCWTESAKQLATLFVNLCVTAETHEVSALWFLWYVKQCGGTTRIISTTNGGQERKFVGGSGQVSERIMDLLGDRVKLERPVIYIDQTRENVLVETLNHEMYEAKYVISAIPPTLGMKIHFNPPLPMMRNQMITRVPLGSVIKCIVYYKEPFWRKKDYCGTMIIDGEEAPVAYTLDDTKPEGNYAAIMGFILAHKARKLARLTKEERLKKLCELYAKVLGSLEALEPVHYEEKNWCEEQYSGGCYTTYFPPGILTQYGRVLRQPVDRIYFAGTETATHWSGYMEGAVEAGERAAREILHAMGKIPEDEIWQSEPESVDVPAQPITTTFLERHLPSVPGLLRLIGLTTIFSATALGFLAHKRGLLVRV
The test can be described thus: Binding affinity to MAO B in HC brain homogenate, [18F]fluoro deprenyl competition. More on the design: Low affinity to MAO B: key: −: poor; ∘: moderate; +: good; ++: very good; +++: excellent. As for the experimental part:
as §1, with “human” for “human Alzheimer disease”, “homogenate (without AD pathology)” for “homogenate”, “MAO-B binder ([^18F]fluoro deprenyl).” for “Tau binder.”, “96-well” for “96 well”, “fluoro deprenyl” for “Tau-reference binder”, “fluoro deprenyl” for “Tau-binder”

[6] abbreviates: human AD brain homogenate; read-out: IC50 in AD brain homogenate (amyloid-beta).
The mark [7] stands for this setting: human HC brain homogenate; 18F-fluoro deprenyl competition; read-out: IC50 in HC brain homogenate (MAO B).

Like-named read-outs stand apart in the source and are kept apart here.

Tau, sequence (P10636 623-708 limits assumed): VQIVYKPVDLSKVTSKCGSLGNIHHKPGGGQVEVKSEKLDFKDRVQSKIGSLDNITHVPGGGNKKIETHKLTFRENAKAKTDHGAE
amyloid-beta, sequence (P05067 672-711 limits assumed): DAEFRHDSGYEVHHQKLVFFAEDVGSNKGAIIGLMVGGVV

Usually IC50 stands for the concentration needed to halve the response being measured. `Fc1nccc(-c2ccc3c(n2)[nH]c2ccncc23)c1F` [Example F-3]: the “High affinity to Tau” value in test [1] is listed as “+++”. Moreover, the IC50 in test [1] is 0.007 µM; in test [2] (setting [6]), above 1 µM; in test [3], above 1 µM; in test [4], 0.83 µM; in test [5] (setting [7]), 0.645 µM. For the same compound, in test [2] (AD brain homogenate), the “Low affinity to amyloid-beta” value is on record as “+++”. Besides, the “Low affinity to MAO A (HC homogenate)” value in test [3] is given as “+++”. In addition, the “Low affinity to MAO A (mouse homogenate)” value in test [4] is “+++”. Further, the “Low affinity to MAO B” value in test [5] (HC brain homogenate) was “+++”.

With `Fc1nccc(-c2ccc3c(n2)[nH]c2ccncc23)c1Cl` [Example F-4], the “High affinity to Tau” value in test [1] is “++”. In addition, the IC50 is 0.026 µM in test [1]; above 1 µM in test [2] (setting [6]); above 1 µM in test [3]; above 1 µM in test [4]; above 1 µM in test [5] (setting [7]). In addition, in test [2] (AD brain homogenate), the “Low affinity to amyloid-beta” value was “+++”. Also, the “Low affinity to MAO A (HC homogenate)” value in test [3] is “+++”. For the same compound, in test [4], the “Low affinity to MAO A (mouse homogenate)” value was “+++”. Further, the “Low affinity to MAO B” value in test [5] (HC brain homogenate) is given as “+++”.

In the case of `Fc1cc(-c2ccc3c(n2)[nH]c2ccncc23)cc(F)n1` [Example F-5], the “High affinity to Tau” value in test [1] is reported as “++”. The IC50 was 0.029 µM in test [1]; above 1 µM in test [2] (setting [6]); above 1 µM in test [3]; above 1 µM in test [4]; above 1 µM in test [5] (setting [7]). The “Low affinity to amyloid-beta” value in test [2] (AD brain homogenate) was “+++”. Besides, the “Low affinity to MAO A (HC homogenate)” value in test [3] is “+++”. Moreover, the “Low affinity to MAO A (mouse homogenate)” value in test [4] was “+++”. In addition, in test [5] (HC brain homogenate), the “Low affinity to MAO B” value is “+++”.

With `Fc1cc(-c2ccc3c(n2)[nH]c2ccncc23)c(F)cn1` [Example F-6], the “High affinity to Tau” value in test [1] was “++”. Besides, the IC50 in test [1] was 0.017 µM; in test [2] (setting [6]) it was above 1 µM; in test [3], above 1 µM; in test [4] it was above 1 µM; in test [5] (setting [7]), above 1 µM. Also, the “Low affinity to amyloid-beta” value in test [2] (AD brain homogenate) is recorded as “+++”. For the same compound, the “Low affinity to MAO A (HC homogenate)” value in test [3] was “+++”. For the same compound, in test [4], the “Low affinity to MAO A (mouse homogenate)” value is reported as “+++”. Besides, in test [5] (HC brain homogenate), the “Low affinity to MAO B” value is on record as “+++”.

Turning to `Fc1ccc(-c2ccc3c(n2)[nH]c2ccncc23)c(F)n1` [Example F-7], the “High affinity to Tau” value in test [1] is given as “++”. Moreover, the half-maximal inhibitory concentration (IC50) is 0.01 µM in test [1]; above 1 µM in test [2] (setting [6]); 0.739 µM in test [3]; 0.701 µM in test [4]; 0.387 µM in test [5] (setting [7]). Besides, the “Low affinity to amyloid-beta” value in test [2] (AD brain homogenate) is “+++”. For the same compound, in test [3], the “Low affinity to MAO A (HC homogenate)” value was “+++”. The “Low affinity to MAO A (mouse homogenate)” value in test [4] was “+++”. Further, the “Low affinity to MAO B” value in test [5] (HC brain homogenate) is on record as “++”.

Consider `Fc1cnc(F)c(-c2ccc3c(n2)[nH]c2ccncc23)c1` [Example F-8], for which the “High affinity to Tau” value in test [1] is reported as “++”. Further, the concentration for half-maximal inhibition (IC50) is 0.009 µM in test [1]; above 1 µM in test [2] (setting [6]); above 1 µM in test [3]; above 1 µM in test [4]; above 1 µM in test [5] (setting [7]). Besides, in test [2] (AD brain homogenate), the “Low affinity to amyloid-beta” value is recorded as “+++”. In addition, the “Low affinity to MAO A (HC homogenate)” value in test [3] is reported as “+++”. Further, in test [4], the “Low affinity to MAO A (mouse homogenate)” value is listed as “+++”. The “Low affinity to MAO B” value in test [5] (HC brain homogenate) is “+++”.

As to `N#Cc1ccc(-c2ccc3c(n2)[nH]c2ccncc23)cc1F` [Example F-9], the “High affinity to Tau” value in test [1] is “++”. For the same compound, the concentration for half-maximal inhibition (IC50) was 0.013 µM in test [1]; above 1 µM in test [2] (setting [6]); 0.333 µM in test [3]; 0.181 µM in test [4]; above 1 µM in test [5] (setting [7]). In addition, in test [2] (AD brain homogenate), the “Low affinity to amyloid-beta” value is on record as “+++”. Further, the “Low affinity to MAO A (HC homogenate)” value in test [3] is listed as “++”. Also, the “Low affinity to MAO A (mouse homogenate)” value in test [4] is listed as “++”. Also, the “Low affinity to MAO B” value in test [5] (HC brain homogenate) is listed as “+++”.

As to `N#Cc1cc(-c2ccc3c(n2)[nH]c2ccncc23)ccc1F` [Example F-9a], in test [1], the “High affinity to Tau” value is given as “+++” and the half-maximal inhibitory concentration (IC50) was 0.0087 µM. In addition, in test [4], the “Low affinity to MAO A (mouse homogenate)” value is listed as “++” and the 50% inhibitory concentration (IC50) stood at 0.152 µM.

Regarding `Nc1cc(-c2ccc3c(n2)[nH]c2ccncc23)ccc1F` [Example F-10], the “High affinity to Tau” value in test [1] is “+++”. The “Low affinity to amyloid-beta” value in test [2] (AD brain homogenate) was “+++”. Besides, the half-inhibitory concentration (IC50) in test [2] (read-out: IC50 in AD brain homogenate (amyloid-beta); human AD brain homogenate) was 0.68 µM; in test [3], 0.024 µM; in test [4] it was 0.025 µM; in test [5] (read-out: IC50 in HC brain homogenate (MAO B); human HC brain homogenate; 18F-fluoro deprenyl competition) it was above 1 µM. Moreover, in test [3], the “Low affinity to MAO A (HC homogenate)” value is recorded as “+”. Also, the “Low affinity to MAO A (mouse homogenate)” value in test [4] is reported as “+”. Also, the “Low affinity to MAO B” value in test [5] (HC brain homogenate) was “+++”.
